Assay results from patent publication EP1431294A1, “VASCULAR WALL-SELECTIVE ACAT INHIBITOR” (Kowa Company Ltd., priority 2001, dated 2003).

Legend:
[1] = tested on: lipid-loaded model of F1B hamster; test: Arteriosclerotic model animal test (lipid-loaded F1B hamster); conditions: for dose from which suppression of lipid accumulation was effective / plasma cholesterol at doses effective in suppression of lipid accumulation: F1B hamsters; for dose from which suppression of lipid accumulation was effective: drug in high-fat feed; for dose from which suppression of lipid accumulation was effective / CE/FC Adrenal Gland / CE/FC Lipid Accumulation to Artery / CE/FC Liver / CE/FC Small Intestine: 10 weeks; for plasma cholesterol at doses effective in suppression of lipid accumulation: total cholesterol in plasma relative to control, Dunnett's test; for CE/FC Adrenal Gland / CE/FC Lipid Accumulation to Artery / CE/FC Liver / CE/FC Small Intestine: ratio to control (1.0)
Procedure: Male hamsters of a Bio F1B strain purchased from Nippon Charles River were randomly grouped so that each group comprised six. As from eight weeks age, they were loaded with a high-fat feed (0.3% of cholesterol and 10% of coconut oil) for ten weeks while the drug was administered by mixing with the feed. After ten weeks, blood was collected and cholesterol in plasma was measured. Further, arterywas excised after fixingbyperfusion with a 10% formalin solution. This was incised, lipid which was accumulated in the artery was stained with Oil Red O and the stained area was measured using an image analyzer.
A high-fat feed (0.3% of cholesterol and 10% of coconut oil) was prepared by way of compounding ratio of cholesterol : coconut oil : feed (CE-2) = 0.03:1:9. Incidentally, a high-fat feed was given to the control group and the administered period was 10 weeks.
Hamster under a non-fasted state was anesthetized, subj ected to an abdominal section to expose the abdominal artery and about 2.5 mL of blood were collected. The collected blood was centrifuged at 3, 000 rpm for 15 minutes to collect the plasma and then total cholesterol (TC) and free cholesterol (FC) in plasma were determined by a Cholesterol E-Test Wako (a cholesterol oxidase DAOS method) and a Free Cholesterol E-Test Wako (a cholesterol oxidase DAOS method), respectively.
About 500 mg of liver, small intestine and adrenal body were excised and washed with a physiological saline solution and lipid concentration in the tissues was measured. In the measurement, 10 mL of chloroform : methanol (2:1) as an extracting solution for lipid in the tissue were placed in the liver and the small intestine, homogenized at 3,000 rpm using a Polytron Homogenizer PT 3100 and allowed to stand at 4°C for one night. The extract was centrifuged at 1,500 rpm for 15 minutes, 0.2 mL of the supernatant liquid was evaporated to dryness using a vacuum pump, the residue was dissolved in 50 µL of isopropanol and each lipid was subjected to the same kits whereupon TC and FC were quantified. With regard to the adrenal body, it was finely cut using scissors and 0.5 mL of chloroform : methanol (2:1) was added thereto followed by being allowed to stand at 4°C for one night. That was centrifuged at 1,500 rpm for 15 minutes, 0.2 mL of the supernatant liquid was evaporated to dryness using a vacuum pump, the residue was dissolved in 50 µL of isopropanol and each lipid was subjected to the same kits whereupon TC and FC were quantified.
With regard to the total cholesterol (TC) in plasma in the group to which the drug was administered, the relative ratio to TC in the control group was used as an indicator while, with regard to the tissue, difference between TC and FC was defined as CE (cholesterol ester) and the lipid-constituting ratio, CE/FC, in each organ was determined whereupon their relative ratio to each control was calculated and used as an indicator. Thus, in those indicators, the control group was defined as 100% and the calculation using the following formula was carried out so as to use a plasma TC lowering action by ACAT inhibitory action to liver and small intestine of the group to which the drug was administered as an indicator and also to use the variation of CE/FC ratio by an ACAT inhibitory action to each organ as an indicator. Indicator (%) for total cholesterol in plasma = [(TC of drug-administered group)/(TC of the control group)] × 100 [formula] Indicator (%) for lipid constituting ratio in each organ = [(CE/FC of drug-administered group)/(CE/FC of the control group)] × 100 [formula]
After collection of the blood, a 18-G injection needle was inserted into apex and perfused with a physiological saline solution (120 mmHg) for about 5minutes. It was further perfused with a 10% neutral formalin buffer (120 mmHg) for about 5 minutes. Bulbar and thoracic artery was excised and fixed in a 10% formalin buffer.

ACAT [2] = target: T1, ACAT (Mus musculus, UniProt Q61263); test: ACAT inhibitory activity test in J774 cells (anti-foaming action); assay type: cell-based; conditions: for IC50: J774 cells, 25-hydroxycholesterol 10 µg/mL, 18 hours, cholesterol ester per protein
T1 construct: J774 cells or HepG2 cells were sown on a 24-well plate; endogenous in cells; host or cells: J774 cells
T1 sequence (Q61263 1-540): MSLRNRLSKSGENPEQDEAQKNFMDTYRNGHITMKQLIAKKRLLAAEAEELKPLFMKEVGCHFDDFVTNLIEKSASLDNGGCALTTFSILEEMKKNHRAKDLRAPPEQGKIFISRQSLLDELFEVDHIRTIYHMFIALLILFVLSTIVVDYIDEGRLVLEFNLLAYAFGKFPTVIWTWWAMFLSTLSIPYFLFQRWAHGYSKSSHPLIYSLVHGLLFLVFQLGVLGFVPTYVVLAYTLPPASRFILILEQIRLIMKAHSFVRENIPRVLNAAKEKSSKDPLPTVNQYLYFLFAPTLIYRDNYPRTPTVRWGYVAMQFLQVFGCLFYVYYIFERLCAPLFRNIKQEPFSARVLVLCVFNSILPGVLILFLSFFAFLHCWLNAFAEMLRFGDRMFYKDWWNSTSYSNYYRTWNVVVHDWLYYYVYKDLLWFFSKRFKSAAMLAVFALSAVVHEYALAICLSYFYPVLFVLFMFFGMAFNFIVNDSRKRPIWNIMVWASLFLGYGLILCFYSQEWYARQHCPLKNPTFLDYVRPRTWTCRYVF
Procedure: (§1) J774 cells or HepG2 cells were sown on a 24-well plate and incubation was carried out at 37°C for 24 hours in a 5% CO2 incubator using a Dulbecco's modified Eagle's medium for J774 cells and an Eagle's minimum essential medium for HepG2 cells (where both media contained 10% of fetal bovine serum). […] The medium was taken out, washed with PBS twice, extracted with 1.5 mL of hexane-isopropanol (3:2) and concentrated to dryness. The extract was dissolved in isopropanol containing 0.2 mL of 10% Triton X-100 and then total cholesterol (TC) and free cholesterol (FC) were determined by a Cholesterol E Test Wako (Wako Pure Chemical) and a Free Cholesterol E Test Wako (Wako Pure Chemical), respectively. The residue of the cell after extraction was solubilized with 0.25 mL of 2N NaOH at 37°C for 30 minutes and protein was determined by a BCA Protein Assay Reagent (Pierce). From the differencebetween TC and FC, amount of cholesterolester per protein was calculated and, from the comparative calculation with the control, IC50 value was determined.

ACAT [3] = test: ACAT inhibitory activity test in HepG2 cells; assay type: cell-based; conditions: 25-hydroxycholesterol 10 µg/mL, 18 hours, cholesterol ester per protein
Procedure: as §1

[4] = Water solubility in liquid I of the Japanese Pharmacopoeia; assay type: physicochemical
[5] = Oral absorption test in rats under a fed condition (plasma concentration); assay type: in vivo; conditions: for AUC(0-inf) / Cmax: rat, plasma, po, fed, oral 30 mg/kg
Procedure: A solution of the compound of the present invention (dissolved in a mixture of water : PEG 400 = 1:4) or a suspension in 0.5% methyl cellulose (MC) was compulsorily administered per os at. the dose of 30 mg/kg to three rats under a fed condition. Blood after the administration was periodically collected and its concentration in plasma was measured.
The organic layer (upper layer) was collected, the solvent was evaporated in a nitrogen stream, the residue was dissolved in 0.2 mL of a mobile phase (refer to the following) and 80 µL thereof were measured under the following analytical conditions.
The organic layer was collected, the solvent was evaporated in a nitrogen stream, the residue was dissolved in 0.2 mL of a mobile phase (refer to the following) and 80 µL thereof were measured under the following condition for high-performance liquid chromatography. Condition for detection: • (Detector: Single-stage quadrupole mass spectrometer • Ionization method: Atmospheric pressure chemical ionization method • Temperature of nebulizer: 475°C • Corona voltage: 3 kV • Monitoring ion: m/z 569 (hydrogen addition ion of the compound of Example 78), 549 (hydrogen addition ion of the compound of Example 85)) Condition for separation: • (Column: Symmetry RP8 manufactured by Waters (3.0 mmφ × 150 mm) • Temperature of column: 45°C • Mobile phase: a solution where 0.1% ammonium formate (pH 4)/methanol/acetonitrile are mixed in […] • Flow rate: 0.8 mL/min)
To 150 µL of plasma were added a 0.1 mol/L aqueous solution of sodium hydroxide and 0.2 mL of an analogous compound (500 ng/mL of the compound of Example 28 of the Japanese Patent Application No. 8/158,743, i.e. 8-(benzimidazol-2-ylthio)-N-(2,6-diisopropylphenyl)octanamide as an internal standard, stirred and extracted with 6 mL of an isopropanol/hexane (5: 95) solution. The organic layer was collected, the solvent was evaporated in a nitrogen stream, the residue was dissolved in 0.2 mL of a mobile phase (refer to the following) and 80 µL thereof were measured under the following condition for high-performance liquid chromatography.

[6] = as above; assay type: in vivo; conditions: rat, 30 mg/kg
[7] = 30 mg/kg, rats, medium 0.5% MC Suspension
[8] = 30 mg/kg, rats, medium PEG 400: Water (4:1)

## CC(C)c1cc(C(C)C)c(CC(=O)NS(=O)(=O)Oc2c(C(C)C)cccc2C(C)C)c(C(C)C)c1 [Cl-1011]
[1]
  dose from which suppression of lipid accumulation was effective: ≥ 1 mg/kg
  plasma cholesterol at doses effective in suppression of lipid accumulation: accompanied by a significant decrease of plasma cholesterol
[1]; dose 0.1 mg/kg in feed
  CE/FC Adrenal Gland: 0.98
  CE/FC Lipid Accumulation to Artery: 0.73
  CE/FC Liver: 1.03
  CE/FC Small Intestine: 0.92
[1]; dose 0.3 mg/kg in feed
  CE/FC Adrenal Gland: 1.03
  CE/FC Lipid Accumulation to Artery: 0.81
  CE/FC Liver: 0.74
  CE/FC Small Intestine: 0.82
[1]; dose 1 mg/kg in feed
  CE/FC Adrenal Gland: 0.62
  CE/FC Lipid Accumulation to Artery: 0.35
  CE/FC Liver: 0.37
  CE/FC Small Intestine: 0.60
[1]; dose 3 mg/kg in feed
  CE/FC Adrenal Gland: 0.24
  CE/FC Lipid Accumulation to Artery: 0.15
  CE/FC Liver: 0.17
  CE/FC Small Intestine: 0.08
[1]; dose 10 mg/kg in feed
  CE/FC Adrenal Gland: 0.28
  CE/FC Lipid Accumulation to Artery: 0
  CE/FC Liver: 0.07
  CE/FC Small Intestine: 0
[1]; suppressing rate of lipid accumulation vs CE/FC ratio in liver, small intestine, adrenal body
  difference of selectivities in each of the tissues: a significant difference of selectivities was not found

## CC(C)c1ccc(O)c(C(C)C)c1NC(=O)CN1CCN(CCSc2nc3cccc(C(F)(F)F)c3o2)CC1 [Comparative Compound, 2-[4-[2-(7-trifluoromethylbenzoxazol-2-ylthio)ethyl]piperazin-1-yl]-N-(2,6-diisopropyl-3-hydroxyphenyl)acetamide]
ACAT [2]
  IC50: 460 nM
ACAT [2]; compared with the compound of Example 85 (19 nM)
  lowering of ACAT inhibitory activity (J774): about 24 fold

## CC(C)c1cc(O)cc(C(C)C)c1NC(=O)CN1CCN(CCSc2nc3cccc(C(F)(F)F)c3o2)CC1.Cl [Compound of the Invention, 2-[4-[2-(7-trifluoromethylbenzoxazol-2-ylthio)ethyl]piperazin-1-yl]-N-(2,6-diisopropyl-4-hydroxyphenyl)acetamide hydrochloride]
ACAT [3]
  IC50: 2900 nM
[4]; compared with the lead compound (Example 85)
  increase of solubility: 5 fold
[4]; pH 1.2, simulated gastric fluid
  solubility: 500 µg/mL
[5]; compared with Example 85, medium 0.5% methyl cellulose (MC) suspension, rats 30 mg/kg
  improvement of oral absorption: about 9.4 fold
[5]; compared with Example 85, medium water/PEG 400 (1:4), rats 30 mg/kg
  increase in oral absorption: about 8 fold
[5]; [7]
  AUC(0-inf): 639 ng·h/mL
  Cmax: 167 ng/mL
[5]; [8]
  AUC(0-inf): 486 ng·h/mL
  Cmax: 141 ng/mL
[1]
  dose from which suppression of lipid accumulation was effective: ≥ 3 mg/kg
  plasma cholesterol at doses effective in suppression of lipid accumulation: without a significant decrease of plasma cholesterol
[1]; dose 3 mg/kg in feed
  CE/FC Adrenal Gland: 1.02
  CE/FC Lipid Accumulation to Artery: 0.69
  CE/FC Liver: 1.08
  CE/FC Small Intestine: 1.16
[1]; dose 10 mg/kg in feed
  CE/FC Adrenal Gland: 1.11
  CE/FC Lipid Accumulation to Artery: 0.33
  CE/FC Liver: 0.88
  CE/FC Small Intestine: 1.02
[1]; dose 30 mg/kg in feed
  CE/FC Adrenal Gland: 0.89
  CE/FC Lipid Accumulation to Artery: 0.21
  CE/FC Liver: 0.60
  CE/FC Small Intestine: 0.91
[1]; dose 100 mg/kg in feed
  CE/FC Adrenal Gland: 0.52
  CE/FC Lipid Accumulation to Artery: 0.17
  CE/FC Liver: 0.24
  CE/FC Small Intestine: 0.20
ACAT [2]
  macrophage selectivity (IC50 (HepG2)/IC50 (J774)): about 45 fold

## CC(C)c1cccc(C(C)C)c1NC(=O)CN1CCN(CCSc2nc3ccccc3o2)CC1 [Example 1, 2-[4-[2-(benzoxazol-2-ylthio)ethyl]piperazin-1-yl]-N-(2,6-diisopropylphenyl) acetamide]
[6]; medium 0.05N (Aq HCl)
  AUC(0-inf): 295 ng·h/mL
  Cmax: 110 ng/mL

## CSc1cc(C)nc(SC)c1NC(=O)CN1CCN(CCSc2nc3ccccc3o2)CC1 [Example 24, N-[2,4-bis (methylthio) -6-methyl-3-pyridyl]-2-[4-[2-(benzoxazol-2-ylthio)ethyl]-piperazin-1-yl]acetamide]
[1]
  dose from which suppression of lipid accumulation was effective: ≥ 3 mg/kg
  plasma cholesterol at doses effective in suppression of lipid accumulation: accompanied by a significant decrease of plasma cholesterol
[1]; dose 1 mg/kg in feed
  CE/FC Adrenal Gland: 0.6
  CE/FC Lipid Accumulation to Artery: 0.91
  CE/FC Liver: 0.89
  CE/FC Small Intestine: 0.79
[1]; dose 3 mg/kg in feed
  CE/FC Adrenal Gland: 0.34
  CE/FC Lipid Accumulation to Artery: 0.37
  CE/FC Liver: 0.36
  CE/FC Small Intestine: 0.45
[1]; dose 10 mg/kg in feed
  CE/FC Adrenal Gland: 0.11
  CE/FC Lipid Accumulation to Artery: 0.32
  CE/FC Liver: 0.16
  CE/FC Small Intestine: 0.21
[1]; dose 30 mg/kg in feed
  CE/FC Adrenal Gland: 0.11
  CE/FC Lipid Accumulation to Artery: 0.28
  CE/FC Liver: 0.09
  CE/FC Small Intestine: 0.13

## CC(C)c1cc(O)cc(C(C)C)c1NC(=O)CN1CCN(CCSc2nc3ccccc3o2)CC1 [Example 72, 2-[4-[2-(benzoxazol-2-ylthio)ethyl]piperazin-1-yl]-N-(2,6-diisopropyl-4-hydroxyphenyl) acetamide]
ACAT [3]
  IC50: 780 nM
[6]; medium 0.05N (Aq HCl)
  AUC(0-inf): 1100 ng·h/mL
  Cmax: 470 ng/mL
[5]; compared with the compound of Example 1, rats, 30 mg/kg
  improving effect in oral absorption in terms of Cmax value: about 4.3 fold
ACAT [2]
  IC50: 130 nM

## COc1cc(C(C)C)c(NC(=O)CN2CCN(CCSc3nc4ccccc4o3)CC2)c(C(C)C)c1 [Example 75, 2-[4-[2-(benzoxazol-2-ylthio)ethyl]piperazin-1-yl]-N-(2,6-diisopropyl-4-methoxyphenyl)acetamide]
ACAT [3]
  IC50: 10000 nM
ACAT [2]
  macrophage selectivity (IC50 (HepG2)/IC50 (J774)): not less than 96 fold
  IC50: 100 nM

## CCOCCOc1cc(C(C)C)c(NC(=O)CN2CCN(CCSc3nc4ccccc4o3)CC2)c(C(C)C)c1 [Example 78, 2-[4-[2-(benzoxazol-2-ylthio)ethyl]piperazin-1-yl]-N-[2,6-diisopropyl-4-(2-ethoxyethyl)oxyphenyl]acetamide]
[6]; medium PEG 400:DMSO = 5:1
  AUC(0-inf): 29.8 ng·h/mL
  Cmax: 14.8 ng/mL
ACAT [2]
  IC50: 14 nM

## CC(C)c1cccc(C(C)C)c1NC(=O)CN1CCN(CCSc2nc3cccc(C(F)(F)F)c3o2)CC1 [Example 85, 2-[4-[2-(7-trifluoromethylbenzoxazol-2-ylthio)ethyl]piperazin-1-yl]-N-(2,6-diisopropylphenyl)acetamide]
ACAT [3]
  IC50: 680 nM
[6]; medium PEG 400
  AUC(0-inf): 71.8 ng·h/mL
  Cmax: 17.6 ng/mL
ACAT [2]
  IC50: 19 nM
